One assay concerns the target T1, human MR (Homo sapiens, UniProt P08235).
T1 construct: The full length human MR gene is cloned from a human kidney or human brain cDNA library; inferred from own knowledge of the pAcHLT vector (N); made in house; host or cells: Sf9 insect cells (baculovirus)
T1 sequence (P08235 1-984): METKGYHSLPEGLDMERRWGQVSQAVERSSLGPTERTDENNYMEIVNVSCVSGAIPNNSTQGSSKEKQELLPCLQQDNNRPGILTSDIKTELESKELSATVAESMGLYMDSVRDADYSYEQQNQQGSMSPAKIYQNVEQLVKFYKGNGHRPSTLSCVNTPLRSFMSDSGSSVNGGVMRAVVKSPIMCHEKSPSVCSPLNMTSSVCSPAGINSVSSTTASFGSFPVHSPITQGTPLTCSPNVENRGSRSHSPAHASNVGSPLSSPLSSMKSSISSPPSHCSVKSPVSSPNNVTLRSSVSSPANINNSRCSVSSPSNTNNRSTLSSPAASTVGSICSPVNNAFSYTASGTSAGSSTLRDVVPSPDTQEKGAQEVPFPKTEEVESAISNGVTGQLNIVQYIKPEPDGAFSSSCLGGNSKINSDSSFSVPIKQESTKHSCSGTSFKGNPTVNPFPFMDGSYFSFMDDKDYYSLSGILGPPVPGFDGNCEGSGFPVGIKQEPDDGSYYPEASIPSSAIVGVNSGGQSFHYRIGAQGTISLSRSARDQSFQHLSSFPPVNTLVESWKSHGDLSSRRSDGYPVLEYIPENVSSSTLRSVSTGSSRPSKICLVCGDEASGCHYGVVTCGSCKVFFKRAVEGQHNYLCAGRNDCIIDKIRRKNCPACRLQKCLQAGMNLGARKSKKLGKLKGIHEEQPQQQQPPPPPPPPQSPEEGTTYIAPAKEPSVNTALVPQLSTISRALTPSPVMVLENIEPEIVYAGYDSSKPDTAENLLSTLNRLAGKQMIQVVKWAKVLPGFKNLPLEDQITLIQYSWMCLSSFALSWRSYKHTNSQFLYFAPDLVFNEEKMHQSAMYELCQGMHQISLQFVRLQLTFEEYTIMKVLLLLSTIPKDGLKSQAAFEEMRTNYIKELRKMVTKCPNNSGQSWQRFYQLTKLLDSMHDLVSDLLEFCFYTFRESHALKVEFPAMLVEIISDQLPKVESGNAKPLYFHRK
Description: Mineralocorticoid Receptor Binding Assay (Method 1), [3H]-aldosterone competition. Particulars: 0.5 nM [3H]-aldosterone, human MR expressed in Sf9 cells. In a few lines: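 Full-length human MR expressed in Sf9 cells via baculovirus; lysate supernatant (about 20-25 μg protein) incubated with 0.5 nM [3H]-aldosterone and test compound for about 16 h at 4° C. Buffer was Tris/molybdate/phosphate/pyrophosphate with 10% glycerol, pH 7.5; filter-bound complex counted by scintillation.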

The target of assay [1] is T2, human GR (glucocorticoid receptor) (Homo sapiens, UniProt P04150).
T2 construct: expressed in transfected cells; host or cells: 293 cells
T2 sequence (P04150 1-777): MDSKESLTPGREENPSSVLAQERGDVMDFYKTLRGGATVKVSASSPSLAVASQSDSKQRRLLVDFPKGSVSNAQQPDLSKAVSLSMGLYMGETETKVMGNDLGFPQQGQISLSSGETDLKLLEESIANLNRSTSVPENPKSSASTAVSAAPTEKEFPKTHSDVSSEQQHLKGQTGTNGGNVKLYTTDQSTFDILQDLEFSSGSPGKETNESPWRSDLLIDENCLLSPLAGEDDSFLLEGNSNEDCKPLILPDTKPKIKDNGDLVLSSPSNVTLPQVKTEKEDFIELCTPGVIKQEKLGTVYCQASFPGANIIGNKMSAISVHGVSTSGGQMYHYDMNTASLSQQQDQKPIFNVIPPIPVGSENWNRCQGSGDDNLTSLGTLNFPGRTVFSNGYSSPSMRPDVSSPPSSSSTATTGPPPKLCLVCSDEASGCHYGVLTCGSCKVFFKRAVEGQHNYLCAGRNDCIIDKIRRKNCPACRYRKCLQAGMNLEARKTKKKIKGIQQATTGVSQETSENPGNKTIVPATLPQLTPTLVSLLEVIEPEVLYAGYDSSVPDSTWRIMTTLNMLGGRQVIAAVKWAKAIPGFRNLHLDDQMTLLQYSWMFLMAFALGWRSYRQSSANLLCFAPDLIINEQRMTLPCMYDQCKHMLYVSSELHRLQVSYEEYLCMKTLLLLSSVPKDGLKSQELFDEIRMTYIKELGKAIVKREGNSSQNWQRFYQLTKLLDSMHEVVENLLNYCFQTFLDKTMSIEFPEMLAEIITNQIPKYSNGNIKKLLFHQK
Description: Alternative Binding Assay Protocol (Method 2), 293-GR lysate, 3H-dexamethasone competition. Particulars: 0.3 nM 3H-dexamethasone. How it is done: Alternative Binding Assay Protocol for MR, GR, AR, and PR (Method 2):
Cell lysates from 293 cells overexpressing human GR (glucocorticoid receptor), AR (androgen receptor), MR (mineralocorticoid receptor) or PR (progesterone-receptor) are used for competition binding assays to determine Ki values for test compounds. […] Competing compounds are added at various concentraions in half-log increments. Non-specific binding is determined in the presence of 500 nM dexamethasone for GR binding, 500 nM aldosterone for MR binding, or 500 nM methyltrienolone for AR and PR binding. The binding reaction (140 μl) is incubated for overnight at 4° C., then 70 μl of cold charcoal-dextran buffer (containing per 50 ml of assay buffer, 0.75 g of charcoal and 0.25 g of dextran) is added to each reaction. Plates are mixed 8 minutes on an orbital shaker at 4° C. Plates are then centrifuged at 3,000 rpm at 4° C. for 10 minutes. An aliquot of 120 μl of the mix is transferred to another 96-well plate and 175 μl of Wallac Optiphase “Hisafe 3” scintillation fluid is added to each well. Plates are sealed and shaken vigorously on an orbital shaker. After an incubation of 2 hrs, plates are read in a Wallac Microbeta counter. […] The Kd for ^3H-dexamethasone for GR binding, ^3H-methyltrienolone for AR binding, ^3H-aldosterone for MR binding, or ^3H-methyltrienolone for PR binding, is determined by saturation binding. The IC50 values for compounds are converted to Ki using Cheng-Prusoff equation and the Kd determined by saturation binding assay.

In the next assay the target is T3, glucocorticoid receptor (Homo sapiens, UniProt P04150).
T3 construct: containing 50-200 ug of A549 cell extract and 1.86 nM; host or cells: A549 human lung epithelial cells
T3 sequence (P04150 1-777): T2 sequence (P04150 1-777)
Description: Glucocorticoid Receptor Binding Assay (Method 1), [3H]-dexamethasone competition, A549 cell extract. Particulars: 1.86 nM [3H]-dexamethasone, read-out: GR Ki (nM) Method 1. In a few lines: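 Receptor source: sonicated extract of human A549 lung epithelial cells in glycerol/Tris-HCl pH 7.2 buffer with sodium molybdate. [3H]-dexamethasone competition run 16 h at 4 °C; unbound radioligand stripped with dextran-coated charcoal (8 min, RT) and receptor-bound radioactivity quantified by scintillation counting.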

The structures appear in SMILES notation.

As for `CC1(c2c[nH]c3c(NS(C)(=O)=O)cccc23)CCCCc2ccccc21` (stereo not drawn) [Example 189], the Ki (at human MR; in assay [1]) was under 500 nM in each case.
For `C[C@@](c1ccc(F)cc1)(c1c[nH]c2c(NS(C)(=O)=O)cccc12)C1CC1` [Example 186], the Ki (at human MR; in assay [1]) was under 500 nM in each case.
Consider `Cc1ccc(C(C)(c2c[nH]c3c(NS(C)(=O)=O)cccc23)C2CC2)cc1` (stereo not drawn) [Example 169], for which the Ki (at human MR; in assay [1]) was under 500 nM in each case.
On to `CCC(CC)(c1ccc(N2CCOCC2)cc1)c1c[nH]c2c(NS(C)(=O)=O)cccc12` [Example 197], for which the Ki (at human MR; in assay [1]) was under 500 nM throughout.
For `CCC(c1ccc(F)cc1)(c1c[nH]c2c(NS(C)(=O)=O)cccc12)C1CC1` (stereo not drawn) [Example 165], the inhibition constant (Ki) (on human MR; in assay [1]) was under 500 nM each time.
On to `COc1ccc(C(C)(c2c[nH]c3c(NS(C)(=O)=O)cccc23)C2CC2)cc1` (stereo not drawn) [Example 170], for which the Ki (at human MR; in assay [1]) was under 500 nM in each case.
Turning to `CCC(CC)(c1ccc(C(C)C)cc1)c1c[nH]c2c(NS(C)(=O)=O)cccc12` [Example 182], the values for the Ki (on human MR; in assay [1]) were under 500 nM and under 10000 nM, respectively.
With `CC(c1ccc(Cl)cc1)(c1c[nH]c2c(NS(C)(=O)=O)cccc12)C1CC1` (stereo not drawn) [Example 167], the Ki (at human MR; in assay [1]) was under 500 nM in each case.
`CCCC(CCC)(c1ccc(OC)cc1)c1c[nH]c2c(NS(C)(=O)=O)cccc12` [Example 176] had a Ki in assay [1] of under 500 nM.
Consider `CC(c1ccccc1)(c1c[nH]c2c(NS(C)(=O)=O)cccc12)C1CC1` (stereo not drawn) [Example 178], for which the Ki (at human MR; in assay [1]) was under 500 nM each time.
With `CCC(CC)(c1ccc2nc(NC(C)=O)sc2c1)c1c[nH]c2c(NS(C)(=O)=O)cccc12` [Example 199], the Ki at human MR was under 1000 nM; in assay [1], under 500 nM.
`CCc1ccc(C(CC)(CC)c2c[nH]c3c(NS(C)(=O)=O)cccc23)cc1` [Example 171] had a Ki in assay [1] of under 500 nM.
For `CS(=O)(=O)Nc1cccc2c(C3(c4ccccc4)CCOCC3)c[nH]c12` [Example 33, N-[3-(4-Phenyl-tetrahydro-pyran-4-yl)-1H-indol-7-yl]-methanesulfonamide], the Ki on human MR and on glucocorticoid receptor was under 500 nM throughout.
For `CCC(CC)(c1ccc(F)c(F)c1)c1c[nH]c2c(NS(C)(=O)=O)cccc12` [Example 64, N-{3-[1-(3,4-Difluoro-phenyl)-1-ethyl-propyl]-1H-indol-7-yl}-methanesulfonamide], the Ki on human MR and on glucocorticoid receptor was under 500 nM each time.
In the case of `CCC(CC)(c1ccc(Cl)cc1)c1c[nH]c2c(NS(C)(=O)=O)cccc12` [Example 56, N-{3-[1-(4-Chloro-phenyl)-1-ethyl-propyl]-1H-indol-7-yl}-methanesulfonamide], the Ki at human MR and on glucocorticoid receptor was under 500 nM in each case.
In the case of `CCC(CC)(c1ccc(F)cc1)c1c[nH]c2c([N+](=O)[O-])cccc12` [Example 75, 3-[1-Ethyl-1-(4-fluoro-phenyl)-propyl]-7-nitro-1H-indole], the Ki on human MR and at glucocorticoid receptor was under 500 nM throughout.
On to `CS(=O)(=O)Nc1cccc2c(C3(c4ccccc4)CCCCC3)c[nH]c12` [Example 16, N-[3-(1-Phenylcyclohexyl)-1H-indol-7-yl]-methanesulfonamide], for which the Ki at human MR was under 500 nM; at glucocorticoid receptor, under 1000 nM.
For `CC(C)(c1ccc2c(c1)CCO2)c1c[nH]c2c(NS(C)(=O)=O)cccc12` [Example 22, N-{3-[1-(2,3-Dihydro-benzofuran-5-yl)-1-methyl-ethyl]-1H-indol-7-yl}-methanesulfonamide] the same measures were under 500 nM and under 500 nM.
The like results for `CCC(CC)(c1ccco1)c1c[nH]c2c(NS(C)(=O)=O)cccc12` [Example 30, N-[3-(1-Ethyl-1-furan-2-yl-propyl)-1H-indol-7-yl]-methanesulfonamide] were, in that order, under 500 nM and under 500 nM.
For `CCC(CC)(c1cc2cc(Cl)ccc2o1)c1c[nH]c2c(NS(C)(=O)=O)cccc12` [Example 11, N-{3-[1-(5-Chloro-benzofuran-2-yl)-1-ethyl-propyl]-1H-indol-7-yl}-methanesulfonamide] the same measures were under 500 nM and under 10000 nM.
Turning to `CCC(CC)(c1ccc(C)cc1)c1c[nH]c2c(NS(C)(=O)=O)cccc12` [Example 54, N-[3-(1-Ethyl-1-p-tolyl-propyl)-1H-indol-7-yl]-methanesulfonamide], the Ki at human MR and at glucocorticoid receptor was under 500 nM in each case.
`CCCC(C)(c1ccc(OC(F)(F)F)cc1)c1c[nH]c2c(NS(C)(=O)=O)cccc12` (stereo not drawn) [Example 43]: the Ki is under 500 nM at human MR and under 1000 nM on glucocorticoid receptor.
The like results for `CC(C)(c1ccc2ncccc2c1)c1c[nH]c2c(NS(C)(=O)=O)cccc12` [Example 47, N-[3-(1-Methyl-1-quinolin-6-yl-ethyl)-1H-indol-7-yl]-methanesulfonamide] were, in that order, under 500 nM and under 500 nM.
For the compound `CC(C)(c1cccc(-c2ccc(F)cc2)c1)c1c[nH]c2c(NS(C)(=O)=O)cccc12` [Example 36, N-{3-[1-(4′-Fluoro-biphenyl-3-yl)-1-methyl-ethyl]-1H-indol-7-yl}-methanesulfonamide], the Ki on human MR was under 500 nM; on glucocorticoid receptor it was under 10000 nM.
For `CCC(C)(c1ccc(F)cc1)c1c[nH]c2c(NS(C)(=O)=O)cccc12` (stereo not drawn) [Example 73, N-{3-[1-(4-Fluoro-phenyl)-1-methyl-propyl]-1H-indol-7-yl}-methanesulfonamide] the same measures were under 500 nM and under 500 nM.

The record behind these values is US20060235222A1, “Indole-derivative modulators of steroid hormone nuclear receptors” (ELI LILLY AND COMPANY, priority 2003, published 2006).
